According to PubChem BioAssay (NCI):
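Growth conditions: 96-well plates. Treatment: test compound, 48 hours, 5 concentrations. Analysis: linear interpolation between bracketing concentrations; unreached endpoints set to highest concentration. Here, GI50 denotes the concentration required for 50% inhibition of growth. TGI denotes the concentration required for complete inhibition of growth.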

Tests used:
Assay in all cases: NCI anticancer screen, dose series, 48 h
EKVX NSCLC = test system: EKVX NSCLC
SR leukemia = test system: SR leukemia
OVCAR-5 ovarian = test system: OVCAR-5 ovarian
KM12 colon = test system: KM12 colon
A549 NSCLC = test system: A549 NSCLC
HL-60(TB) leukemia = test system: HL-60(TB) leukemia
SN12C renal = test system: SN12C renal
U251 CNS = test system: U251 CNS
RXF 393 renal = test system: RXF 393 renal
TK-10 renal = test system: TK-10 renal
PC-3 prostate = test system: PC-3 prostate
SK-MEL-28 melanoma = test system: SK-MEL-28 melanoma
LOX IMVI melanoma = test system: LOX IMVI melanoma
MALME-3M melanoma = test system: MALME-3M melanoma
SW-620 colon = test system: SW-620 colon
DU-145 prostate = test system: DU-145 prostate
NCI-H460 lung = test system: NCI-H460 lung
SK-OV-3 ovarian = test system: SK-OV-3 ovarian
786-0 renal = test system: 786-0 renal
OVCAR-8 ovarian = test system: OVCAR-8 ovarian
ACHN renal = test system: ACHN renal
HCT-15 colon = test system: HCT-15 colon
SF-268 CNS = test system: SF-268 CNS
MOLT-4 leukemia = test system: MOLT-4 leukemia
NCI-H23 lung = test system: NCI-H23 lung
NCI/ADR-RES ovarian = test system: NCI/ADR-RES ovarian
SF-295 CNS = test system: SF-295 CNS
NCI-H226 lung = test system: NCI-H226 lung
NCI-H522 lung = test system: NCI-H522 lung
HOP-92 NSCLC = test system: HOP-92 NSCLC
SNB-75 CNS = test system: SNB-75 CNS
COLO 205 colon = test system: COLO 205 colon
MCF7 breast = test system: MCF7 breast
T-47D breast = test system: T-47D breast
BT-549 breast = test system: BT-549 breast
MDA-MB-231 breast = test system: MDA-MB-231 breast
MDA-MB-435 = test system: MDA-MB-435
SK-MEL-5 melanoma = test system: SK-MEL-5 melanoma
SNB-19 CNS = test system: SNB-19 CNS
CCRF-CEM leukemia = test system: CCRF-CEM leukemia
UO-31 renal = test system: UO-31 renal
HCT-116 colon = test system: HCT-116 colon
A498 renal = test system: A498 renal
HOP-62 NSCLC = test system: HOP-62 NSCLC
CAKI-1 renal = test system: CAKI-1 renal
OVCAR-3 ovarian = test system: OVCAR-3 ovarian
M14 melanoma = test system: M14 melanoma
HT29 colon = test system: HT29 colon
UACC-62 melanoma = test system: UACC-62 melanoma
OVCAR-4 ovarian = test system: OVCAR-4 ovarian
HCC-2998 colon = test system: HCC-2998 colon
UACC-257 melanoma = test system: UACC-257 melanoma
K-562 leukemia = test system: K-562 leukemia
HS 578T breast = test system: HS 578T breast
RPMI-8226 leukemia = test system: RPMI-8226 leukemia
SF-539 CNS = test system: SF-539 CNS

CS(=O)(=O)c1ccc(Nc2nc(N[C@H]3CCCC[C@H]3N)nc3cc[nH]c(=O)c23)cc1
GI50 (EKVX NSCLC): 1.3 µM
TGI (EKVX NSCLC): 5.41 µM
GI50 (SR leukemia): 0.68 µM
TGI (SR leukemia): 6.03 µM
GI50 (OVCAR-5 ovarian): 2.52 µM
TGI (OVCAR-5 ovarian): > 100 µM
GI50 (KM12 colon): 0.491 µM
TGI (KM12 colon): 11.9 µM
GI50 (A549 NSCLC): 3.87 µM
TGI (A549 NSCLC): > 100 µM
GI50 (HL-60(TB) leukemia): 0.533 µM
TGI (HL-60(TB) leukemia): 6.6 µM
GI50 (SN12C renal): 2.76 µM
TGI (SN12C renal): > 100 µM
GI50 (U251 CNS): 0.664 µM
TGI (U251 CNS): 21.1 µM
GI50 (RXF 393 renal): 1.03 µM
TGI (RXF 393 renal): 3.04 µM
GI50 (TK-10 renal): 3.19 µM
TGI (TK-10 renal): 18.7 µM
GI50 (PC-3 prostate): 2.46 µM
TGI (PC-3 prostate): > 100 µM
GI50 (SK-MEL-28 melanoma): 1.93 µM
TGI (SK-MEL-28 melanoma): 5.38 µM
GI50 (LOX IMVI melanoma): 0.857 µM
TGI (LOX IMVI melanoma): 6.7 µM
GI50 (MALME-3M melanoma): 1.73 µM
TGI (MALME-3M melanoma): 4.64 µM
GI50 (SW-620 colon): 0.627 µM
TGI (SW-620 colon): 8.6 µM
GI50 (DU-145 prostate): 2.03 µM
TGI (DU-145 prostate): 10.4 µM
GI50 (NCI-H460 lung): 2.62 µM
TGI (NCI-H460 lung): 11.5 µM
GI50 (SK-OV-3 ovarian): 3.17 µM
TGI (SK-OV-3 ovarian): > 100 µM
GI50 (786-0 renal): 3.28 µM
TGI (786-0 renal): 20.6 µM
GI50 (OVCAR-8 ovarian): 2.68 µM
TGI (OVCAR-8 ovarian): 20.3 µM
GI50 (ACHN renal): 5.24 µM
TGI (ACHN renal): 90.1 µM
GI50 (HCT-15 colon): 26.7 µM
TGI (HCT-15 colon): > 100 µM
GI50 (SF-268 CNS): 1.33 µM
TGI (SF-268 CNS): 4.26 µM
GI50 (MOLT-4 leukemia): 2.95 µM
TGI (MOLT-4 leukemia): 17.5 µM
GI50 (NCI-H23 lung): 1.58 µM
TGI (NCI-H23 lung): 6.01 µM
GI50 (NCI/ADR-RES ovarian): > 100 µM
TGI (NCI/ADR-RES ovarian): > 100 µM
GI50 (SF-295 CNS): 1.91 µM
TGI (SF-295 CNS): 5.84 µM
GI50 (NCI-H226 lung): 2.67 µM
TGI (NCI-H226 lung): 19 µM
GI50 (NCI-H522 lung): 0.268 µM
TGI (NCI-H522 lung): 1.72 µM
GI50 (HOP-92 NSCLC): 2.04 µM
TGI (HOP-92 NSCLC): 23.6 µM
GI50 (SNB-75 CNS): 1.29 µM
TGI (SNB-75 CNS): 3.51 µM
GI50 (COLO 205 colon): 0.865 µM
TGI (COLO 205 colon): 2.35 µM
GI50 (MCF7 breast): 0.326 µM
TGI (MCF7 breast): 13.4 µM
GI50 (T-47D breast): 0.891 µM
TGI (T-47D breast): 77.6 µM
GI50 (BT-549 breast): 1.63 µM
TGI (BT-549 breast): 5.51 µM
GI50 (MDA-MB-231 breast): 2.81 µM
TGI (MDA-MB-231 breast): 16.3 µM
GI50 (MDA-MB-435): 1.3 µM
TGI (MDA-MB-435): 3.7 µM
GI50 (SK-MEL-5 melanoma): 1.53 µM
TGI (SK-MEL-5 melanoma): 3.25 µM
GI50 (SNB-19 CNS): 0.714 µM
TGI (SNB-19 CNS): 28.3 µM
GI50 (CCRF-CEM leukemia): 1.24 µM
TGI (CCRF-CEM leukemia): > 100 µM
GI50 (UO-31 renal): 19.7 µM
TGI (UO-31 renal): 72.9 µM
GI50 (HCT-116 colon): 0.615 µM
TGI (HCT-116 colon): 16.8 µM
GI50 (A498 renal): 3.31 µM
TGI (A498 renal): 12.4 µM
GI50 (HOP-62 NSCLC): 3.02 µM
TGI (HOP-62 NSCLC): > 100 µM
GI50 (CAKI-1 renal): 11.7 µM
TGI (CAKI-1 renal): 36.3 µM
GI50 (OVCAR-3 ovarian): 1.3 µM
TGI (OVCAR-3 ovarian): 4.67 µM
GI50 (M14 melanoma): 2.16 µM
TGI (M14 melanoma): 8.83 µM
GI50 (HT29 colon): 2.48 µM
TGI (HT29 colon): 11.8 µM
GI50 (UACC-62 melanoma): 1.5 µM
TGI (UACC-62 melanoma): 3.5 µM
GI50 (OVCAR-4 ovarian): 1.89 µM
TGI (OVCAR-4 ovarian): 9.81 µM
GI50 (HCC-2998 colon): 1.52 µM
TGI (HCC-2998 colon): 4.49 µM
GI50 (UACC-257 melanoma): 2.78 µM
TGI (UACC-257 melanoma): 15.9 µM
GI50 (K-562 leukemia): 1.14 µM
TGI (K-562 leukemia): > 100 µM
GI50 (HS 578T breast): 1.25 µM
TGI (HS 578T breast): 4.95 µM
GI50 (RPMI-8226 leukemia): 4 µM
TGI (RPMI-8226 leukemia): 32.8 µM
GI50 (SF-539 CNS): 2.24 µM
TGI (SF-539 CNS): 7.09 µM
